In PubChem BioAssay (NCI):
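All cell lines were grown in 96-well plates and treated with compound for 48 hours. TGI denotes the concentration required for complete inhibition of growth.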

Experiments:
Assay in all cases: growth of human tumour cells (NCI), 48 h
[1] = system: SF-539 CNS
[2] = system: UACC-62 melanoma
[3] = system: A498 renal
[4] = system: A549 NSCLC
[5] = system: UACC-257 melanoma
[6] = system: HCT-15 colon
[7] = system: PC-3 prostate
[8] = system: COLO 205 colon
[9] = system: K-562 leukemia
[10] = system: 786-0 renal
[11] = system: SNB-19 CNS
[12] = system: SF-295 CNS
[13] = system: CAKI-1 renal
[14] = system: SK-OV-3 ovarian
[15] = system: SK-MEL-5 melanoma
[16] = system: SNB-75 CNS
[17] = system: SR leukemia
[18] = system: HCT-116 colon
[19] = system: IGROV1 ovarian
[20] = system: SN12C renal
[21] = system: RXF 393 renal
[22] = system: U251 CNS
[23] = system: SW-620 colon
[24] = system: OVCAR-4 ovarian
[25] = system: SK-MEL-2 melanoma
[26] = system: NCI-H522 lung
[27] = system: ACHN renal
[28] = system: HCC-2998 colon
[29] = system: NCI/ADR-RES ovarian
[30] = system: MDA-MB-435
[31] = system: MOLT-4 leukemia
[32] = system: MDA-N
[33] = system: MCF7 breast
[34] = system: CCRF-CEM leukemia
[35] = system: NCI-H23 lung
[36] = system: NCI-H226 lung
[37] = system: SF-268 CNS
[38] = system: MALME-3M melanoma
[39] = system: SK-MEL-28 melanoma
[40] = system: NCI-H460 lung
[41] = system: UO-31 renal
[42] = system: MDA-MB-231 breast
[43] = system: BT-549 breast
[44] = system: DU-145 prostate
[45] = system: HS 578T breast
[46] = system: HT29 colon
[47] = system: HOP-92 NSCLC
[48] = system: M14 melanoma
[49] = system: HOP-62 NSCLC
[50] = system: TK-10 renal
[51] = system: OVCAR-5 ovarian
[52] = system: OVCAR-3 ovarian
[53] = system: EKVX NSCLC
[54] = system: KM12 colon
[55] = system: T-47D breast
[56] = system: RPMI-8226 leukemia
[57] = system: OVCAR-8 ovarian
[58] = system: LOX IMVI melanoma
[59] = system: HL-60(TB) leukemia

`CCCCCCCCC/C=C1/CC(CO)(COC(=O)c2ccccc2)OC1=O` (stereo not given) was tested. Which TGI [1] did it give?
The TGI was 34.8 µM.

And the TGI [2]?
The TGI was 28.1 µM.

What about the TGI [3] of the same molecule?
Its TGI is 26.4 µM.

And the TGI [4]?
Its TGI is 26.7 µM.

What about the TGI [5] of the same molecule?
The TGI was 27.4 µM.

What about the TGI [6] of the same molecule?
Its TGI is 29.8 µM.

What about the TGI [7] of the same molecule?
Its TGI is 23.1 µM.

And the TGI [8]?
Its TGI is 11.8 µM.

And the TGI [9]?
The TGI was 22.5 µM.

And the TGI [10]?
The TGI was 29.4 µM.

What about the TGI [11] of the same molecule?
The TGI was 29.1 µM.

And the TGI [12]?
The TGI was 21.9 µM.

And the TGI [13]?
Its TGI is 24.8 µM.

And the TGI [14]?
The TGI was 36 µM.

What about the TGI [15] of the same molecule?
The TGI was 19.2 µM.

What about the TGI [16] of the same molecule?
The TGI was 22.1 µM.

What about the TGI [17] of the same molecule?
Its TGI is 54 µM.

What about the TGI [18] of the same molecule?
Its TGI is 56.2 µM.

What about the TGI [19] of the same molecule?
The TGI was 29.6 µM.

What about the TGI [20] of the same molecule?
Its TGI is 26.4 µM.

What about the TGI [21] of the same molecule?
The TGI was 31 µM.

And the TGI [22]?
The TGI was 27.1 µM.

And the TGI [23]?
Its TGI is 27.4 µM.

And the TGI [24]?
Its TGI is 26.5 µM.

What about the TGI [25] of the same molecule?
Its TGI is 32.4 µM.

What about the TGI [26] of the same molecule?
Its TGI is 26.6 µM.

And the TGI [27]?
Its TGI is 24.9 µM.

What about the TGI [28] of the same molecule?
Its TGI is 27.8 µM.

What about the TGI [29] of the same molecule?
Its TGI is 28.8 µM.

What about the TGI [30] of the same molecule?
The TGI was 23.3 µM.

What about the TGI [31] of the same molecule?
The TGI was 29.9 µM.

What about the TGI [32] of the same molecule?
The TGI was 20.6 µM.

And the TGI [33]?
Its TGI is 30.5 µM.

What about the TGI [34] of the same molecule?
Its TGI is 28.7 µM.

And the TGI [35]?
Its TGI is 28.3 µM.

And the TGI [36]?
Its TGI is 22.9 µM.

And the TGI [37]?
Its TGI is 29.8 µM.

And the TGI [38]?
Its TGI is 20.8 µM.

What about the TGI [39] of the same molecule?
Its TGI is 26.6 µM.

What about the TGI [40] of the same molecule?
The TGI was 22 µM.

What about the TGI [41] of the same molecule?
Its TGI is 27.2 µM.

And the TGI [42]?
The TGI was 26.3 µM.

And the TGI [43]?
The TGI was 27.1 µM.

And the TGI [44]?
Its TGI is 25.5 µM.

What about the TGI [45] of the same molecule?
Its TGI is 13 µM.

What about the TGI [46] of the same molecule?
Its TGI is 31.6 µM.

And the TGI [47]?
Its TGI is 14.4 µM.

What about the TGI [48] of the same molecule?
Its TGI is 30.8 µM.

And the TGI [49]?
Its TGI is 19 µM.

And the TGI [50]?
Its TGI is 22.7 µM.

And the TGI [51]?
The TGI was 24.6 µM.

And the TGI [52]?
Its TGI is 31.2 µM.

What about the TGI [53] of the same molecule?
The TGI was 28.2 µM.

What about the TGI [54] of the same molecule?
The TGI was 30.6 µM.

What about the TGI [55] of the same molecule?
Its TGI is 25.1 µM.

With `O=c1oc2ccc3ccccc3c2cc1-c1nc2ccc([N+](=O)[O-])cc2o1` as the molecule, how does the TGI [1] read?
The TGI was 26.3 µM.

What about the TGI [2] of the same molecule?
The TGI was greater than 100 µM.

What about the TGI [56] of the same molecule?
Its TGI is greater than 100 µM.

And the TGI [3]?
The TGI was greater than 88.4 µM.

And the TGI [4]?
The TGI was greater than 79.1 µM.

What about the TGI [5] of the same molecule?
Its TGI is greater than 100 µM.

What about the TGI [6] of the same molecule?
The TGI was greater than 100 µM.

And the TGI [7]?
Its TGI is greater than 100 µM.

What about the TGI [8] of the same molecule?
Its TGI is greater than 100 µM.

And the TGI [9]?
The TGI was greater than 100 µM.

What about the TGI [10] of the same molecule?
Its TGI is greater than 55.3 µM.

And the TGI [57]?
Its TGI is greater than 100 µM.

And the TGI [11]?
Its TGI is greater than 28.6 µM.

What about the TGI [12] of the same molecule?
Its TGI is greater than 49.5 µM.

And the TGI [13]?
The TGI was greater than 91.4 µM.

And the TGI [14]?
The TGI was greater than 100 µM.

And the TGI [15]?
The TGI was greater than 100 µM.

And the TGI [16]?
The TGI was greater than 100 µM.

And the TGI [17]?
Its TGI is greater than 100 µM.

What about the TGI [18] of the same molecule?
Its TGI is greater than 100 µM.

What about the TGI [19] of the same molecule?
Its TGI is greater than 100 µM.

And the TGI [20]?
The TGI was greater than 100 µM.

What about the TGI [21] of the same molecule?
The TGI was 19.1 µM.

What about the TGI [22] of the same molecule?
Its TGI is greater than 100 µM.

And the TGI [23]?
Its TGI is greater than 100 µM.

And the TGI [24]?
Its TGI is greater than 100 µM.

What about the TGI [25] of the same molecule?
Its TGI is greater than 100 µM.

And the TGI [26]?
Its TGI is greater than 100 µM.

What about the TGI [27] of the same molecule?
The TGI was greater than 24.2 µM.

What about the TGI [58] of the same molecule?
Its TGI is greater than 91.3 µM.

And the TGI [28]?
The TGI was greater than 100 µM.

What about the TGI [29] of the same molecule?
The TGI was greater than 100 µM.

And the TGI [30]?
Its TGI is greater than 100 µM.

What about the TGI [31] of the same molecule?
Its TGI is greater than 100 µM.

What about the TGI [32] of the same molecule?
The TGI was greater than 100 µM.

What about the TGI [33] of the same molecule?
The TGI was greater than 31.4 µM.

And the TGI [34]?
Its TGI is greater than 100 µM.

And the TGI [35]?
Its TGI is greater than 86.9 µM.

What about the TGI [36] of the same molecule?
The TGI was greater than 100 µM.

And the TGI [37]?
Its TGI is greater than 90.2 µM.

And the TGI [38]?
Its TGI is greater than 100 µM.

What about the TGI [39] of the same molecule?
Its TGI is greater than 100 µM.

And the TGI [40]?
The TGI was greater than 100 µM.

And the TGI [41]?
Its TGI is greater than 92.1 µM.

And the TGI [42]?
The TGI was greater than 100 µM.

And the TGI [43]?
Its TGI is greater than 95 µM.

And the TGI [44]?
Its TGI is greater than 100 µM.

What about the TGI [45] of the same molecule?
The TGI was greater than 100 µM.

And the TGI [46]?
Its TGI is greater than 100 µM.

What about the TGI [47] of the same molecule?
The TGI was greater than 91 µM.

And the TGI [48]?
The TGI was greater than 75.3 µM.

What about the TGI [49] of the same molecule?
The TGI was greater than 45.2 µM.

What about the TGI [59] of the same molecule?
The TGI was greater than 100 µM.

What about the TGI [50] of the same molecule?
Its TGI is greater than 78.6 µM.

And the TGI [51]?
Its TGI is greater than 100 µM.

And the TGI [52]?
The TGI was greater than 100 µM.

What about the TGI [53] of the same molecule?
Its TGI is greater than 100 µM.

What about the TGI [54] of the same molecule?
Its TGI is greater than 100 µM.

And the TGI [55]?
The TGI was greater than 100 µM.

Which results are given for `O=Nc1c(O)cc(Nc2cccnc2)c2ccccc12`?
TGI [1]: > 100 µM; TGI [2]: 55.6 µM; TGI [56]: 85 µM; TGI [3]: > 100 µM; TGI [4]: > 100 µM; TGI [5]: > 100 µM; TGI [6]: 64.1 µM; TGI [7]: > 100 µM; TGI [8]: 42.5 µM; TGI [9]: 58.8 µM; TGI [10]: > 100 µM; TGI [57]: > 100 µM; TGI [11]: 8.39 µM; TGI [12]: > 100 µM; TGI [13]: > 100 µM; TGI [14]: > 100 µM; TGI [15]: 11.6 µM; TGI [16]: > 100 µM; TGI [18]: > 100 µM; TGI [19]: 49.9 µM; TGI [20]: > 100 µM; TGI [21]: > 100 µM; TGI [22]: > 100 µM; TGI [23]: 45.5 µM; TGI [24]: > 100 µM; TGI [25]: > 100 µM; TGI [26]: 28 µM; TGI [27]: > 100 µM; TGI [58]: > 100 µM; TGI [28]: 95.4 µM; TGI [29]: 65.1 µM; TGI [30]: > 100 µM; TGI [31]: 41.6 µM; TGI [32]: 76.6 µM; TGI [33]: > 100 µM; TGI [34]: 26.2 µM; TGI [35]: 76 µM; TGI [36]: > 100 µM; TGI [37]: 53.4 µM; TGI [40]: > 100 µM; TGI [41]: > 100 µM; TGI [42]: 47.3 µM; TGI [43]: > 100 µM; TGI [44]: > 100 µM; TGI [45]: > 100 µM; TGI [46]: 50.9 µM; TGI [47]: 68 µM; TGI [48]: > 100 µM; TGI [49]: > 100 µM; TGI [59]: 5.65 µM; TGI [50]: > 100 µM; TGI [51]: > 100 µM; TGI [52]: 11.8 µM; TGI [53]: > 100 µM; TGI [54]: 90.6 µM; TGI [55]: > 100 µM
